Experimental data taken from patent US20200023072A1, “ANTIBODY-DRUG CONJUGATES WITH IMMUNE-MEDIATED THERAPY AGENTS” (MEDIMMUNE LIMITED, priority 2016, published 2020).

System: CT26 mouse colon cancer cells
Test: In vivo vaccination/challenge mouse model with payload-treated CT26 cells
Settings: CT26 cells treated 24 hours with tubulysin (1 uM) or PBD (10 nM), implanted in left flank of BALB/c mice; challenge with untreated CT26 cells in opposite flank 1 week later; assessed on day 65
Method: CT26 cells were treated with either […] AZD9185 (tubulysin) or […] SG3199 (PBD) for 24 hours so that the cells were committed to cell death (as assessed by lack of growth in re-plating experiments) but still >95% viable. Five-hundred thousand of these treated cells were inoculated into the left flank of BALB/c mice to test for their ability to vaccinate for subsequent right flank challenge. Controls included cells treated with 75 Gy radiation or taken through 3 freeze-thaw cycles (necrotic). Challenge on the right flank utilized 3×10^6 untreated CT26 cells 7 days later.
In order to test this, tubulysin and PBD were used in a vaccination/challenge mouse model. CT26 mouse colon cancer cells were treated with either tubulysin (1 uM) or PBD (10 nM) for a period of 24 hours (FIG. 1A). At this point in time, the cells were still viable but committed subsequent cell death.
These dying but not yet dead cells were implanted subcutaneously into the left flank of BALB/c mice to test if they could vaccinate against subsequent challenge with a tumor forming dose of untreated CT26 cells in the opposite flank 1 week later. Irradiated cells were included as a positive control and necrotic cells which were taken through a freeze thaw cycle were included as a negative control.

Structure (SMILES) | mice protected from tumor formation [%]
CC[C@H](C)[C@H](NC(=O)[C@H]1CCCCN1C)C(=O)N(COC(=O)CC(C)C)[C@H](C[C@@H](OC(C)=O)c1nc(C(=O)N[C@@H](Cc2ccc(C)cc2)C[C@H](C)C(=O)O)cs1)C(C)C [Tubulysin] | 40
COc1cc2c(cc1OCCCCCOc1cc3c(cc1OC)C(=O)N1C=C(C)C[C@H]1C=N3)N=C[C@@H]1CC(C)=CN1C2=O [PBD] | 70
